Test [1] has as its target T1, complement C5a receptor 1 (C5aR1) (Homo sapiens, UniProt P21730).
T1 construct: β-galactosidase fragment (PathHunter enzyme complementation); host or cells: CHO-K1 (PathHunter CHO-K1 C5aR1 β-arrestin cell line)
T1 sequence (P21730 1-350): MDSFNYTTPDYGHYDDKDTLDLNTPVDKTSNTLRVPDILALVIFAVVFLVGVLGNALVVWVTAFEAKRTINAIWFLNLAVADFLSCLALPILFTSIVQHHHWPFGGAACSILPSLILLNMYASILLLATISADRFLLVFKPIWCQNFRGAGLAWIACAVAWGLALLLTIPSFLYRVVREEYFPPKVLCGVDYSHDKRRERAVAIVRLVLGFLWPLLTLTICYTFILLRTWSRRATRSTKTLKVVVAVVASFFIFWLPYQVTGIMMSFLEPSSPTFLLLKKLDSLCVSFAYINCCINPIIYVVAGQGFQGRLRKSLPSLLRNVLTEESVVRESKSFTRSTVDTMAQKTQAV
The test is described as follows: β-arrestin recruitment via C5aR1 activation in live CHO-K1 cells (PathHunter), antagonist mode. The class given is cell-based. The method, boiled down: (§1)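 β-arrestin recruitment to C5aR1 in CHO-K1 cells is detected by enzyme-fragment complementation. Antagonism is measured against recombinant hC5a at its EC90; agonism is measured with compound alone. Potencies are grouped into IC50 categories.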
In general terms: Recruitment of arrestin is a read-out of receptor activation apart from second messengers.

For test [2], the target named is T1, complement C5a receptor 1 (C5aR1). The test is described as follows: β-arrestin recruitment via C5aR1 activation in live CHO-K1 cells (PathHunter), agonist mode. The test is classed as cell-based. The gist of the method: as §1
[3] abbreviates: antagonist mode, recombinant hC5a (EC90) as competing natural agonist, live CHO-K1 cells, read-out: [Antagonist] B-arrestin2 recruitment: Average IC50.

Read-outs that look alike come from different tables or passages of the source.

A word on the IC50: it is the concentration that gives 50% inhibition. With `Cc1cccc(F)c1[C@H]1CC[C@H](c2cc3ncc(CC(F)(F)F)nc3n(Cc3ncccc3C(F)(F)F)c2=O)CC1` [compound 229, 7-((1r,4r)-4-(2-Fluoro-6-methylphenyl)cyclohexyl)-3-(2,2,2-trifluoroethyl)-5-((3-(trifluoromethyl)pyridin-2-yl)methyl)pyrido[2,3-b]pyrazin-6(5H)-one], in test [1] (setting [3]), the IC50 was under 0.5 µM. In addition, the “[Agonist] B-arrestin2 recruitment: Average EC50 (nM)” value (“[Agonist] B-arrestin2 recruitment” for short) in test [2] (at 10 μM) is “Non-Active at 10 μM”.
Turning to `Cc1ccc2cc([C@H]3CC[C@H](c4c(C)cccc4F)CC3)c(=O)n(Cc3ncccc3CC(F)F)c2n1` [compound 268, 1-{[3-(2,2-Difluoroethyl)-2-pyridyl]methyl}-7-methyl-3-[(1r,4r)-4-(2-fluoro-6-tolyl)cyclohexyl]-1,8-diaza-2(1H)-naphthalenone], the IC50 in test [1] (setting [3]) was under 0.5 µM. Also, the “[Agonist] B-arrestin2 recruitment” value in test [2] is given as “Non-Active”.
Consider `Cc1cccc(F)c1N1CCC(c2cc3nccnc3n([C@@H]3CCCc4nccnc43)c2=O)CC1` [43a, (R)-7-(1-(2-Fluoro-6-methylphenyl)piperidin-4-yl)-5-(5,6,7,8-tetrahydroquinoxalin-5-yl)pyrido[2,3-b]pyrazin-6(5H)-one], for which, in test [1] (setting [3]), the half-maximal inhibitory concentration (IC50) was 0.5 to 5 µM. In test [2], the “[Agonist] B-arrestin2 recruitment” value is reported as “Non-Active”.
Turning to `Cc1cccc(F)c1N1CCC(c2cc3nccnc3n(Cc3cncc(C(F)(F)F)n3)c2=O)CC1` [compound 30, 7-(1-(2-Fluoro-6-methylphenyl)piperidin-4-yl)-5-((6-(trifluoromethyl)pyrazin-2-yl)methyl)pyrido[2,3-b]pyrazin-6(5H)-one], the IC50 in test [1] is 5 to 100 µM. For the same molecule, the “[Agonist] B-arrestin2 recruitment” value in test [2] was “Non-Active”.
Turning to `Cc1cccc(F)c1N1CCC(c2cc3nccnc3n([C@H]3CCc4nccnc43)c2=O)CC1` [160A, (S)-5-(6,7-Dihydro-5H-cyclopenta[b]pyrazin-5-yl)-7-(1-(2-fluoro-6-methylphenyl)piperidin-4-yl)pyrido[2,3-b]pyrazin-6(5H)-one], in test [1] (setting [3]), the IC50 fell in the range of 5 to 100 µM. Moreover, in test [2] (at 10 μM), the “[Agonist] B-arrestin2 recruitment” value is given as “Non-Active at 10 μM”.
Take `Cc1ncc(F)cc1N1CCC(c2cc3nccnc3n(Cc3ncccc3C(F)(F)F)c2=O)CC1` [compound 44, 7-(1-(5-Fluoro-2-methylpyridin-3-yl)piperidin-4-yl)-5-((3-(trifluoromethyl)pyridin-2-yl)methyl)pyrido[2,3-b]pyrazin-6(5H)-one]: in test [1] (setting [3]), the IC50 was over 100 µM. The “[Agonist] B-arrestin2 recruitment” value in test [2] was “Non-Active”.
Consider `Cc1cnc2cc([C@H]3CC[C@H](c4c(F)cccc4F)CC3)c(=O)n(Cc3ncccc3C(C)(F)F)c2n1` [compound 250, 5-((3-(1,1-Difluoroethyl)pyridin-2-yl)methyl)-7-((1r,4r)-4-(2,6-difluorophenyl)cyclohexyl)-3-methylpyrido[2,3-b]pyrazin-6(5H)-one], for which the IC50 in test [1] (setting [3]) was under 0.5 µM. The “[Agonist] B-arrestin2 recruitment” value in test [2] (at 10 μM) is “Non-Active at 10 μM”.
In the same order, the values of `Cc1cccc(F)c1[C@H]1CC[C@H](c2cc3ncc(CC(F)F)nc3n(Cc3ncccc3C(F)(F)F)c2=O)CC1` [compound 231, 3-(2,2-Difluoroethyl)-7-((1r,4r)-4-(2-fluoro-6-methylphenyl)cyclohexyl)-5-((3-(trifluoromethyl)pyridin-2-yl)methyl)pyrido[2,3-b]pyrazin-6(5H)-one] are under 0.5 µM and “Non-Active at 10 μM”.
Regarding `Cc1cnc2cc([C@H]3CC[C@@H](c4c(C)ccnc4F)CC3)c(=O)n(Cc3nccnc3C)c2n1` [135A, 7-((1s,4s)-4-(2-Fluoro-4-methylpyridin-3-yl)cyclohexyl)-3-methyl-5-((3-methylpyrazin-2-yl)methyl)pyrido[2,3-b]pyrazin-6(5H)-one], the IC50 in test [1] (setting [3]) lay in the range of 5 to 100 µM. For the same molecule, the “[Agonist] B-arrestin2 recruitment” value in test [2] (at 10 μM) is on record as “Non-Active at 10 μM”.
On to `Cc1cnc2cc([C@H]3CC[C@H](c4ccc5c(cnn5C)c4)CC3)c(=O)n(Cc3ncccc3C(F)(F)F)c2n1` [compound 192, 3-Methyl-7-((1r,4r)-4-(1-methyl-1H-indazol-5-yl)cyclohexyl)-5-((3-(trifluoromethyl)pyridin-2-yl)methyl)pyrido[2,3-b]pyrazin-6(5H)-one], for which the IC50 in test [1] (setting [3]) lay in the range of 0.5 to 5 µM. The “[Agonist] B-arrestin2 recruitment” value in test [2] (at 10 μM) was “Non-Active at 10 μM”.
`Cc1ccc2cc([C@H]3CC[C@H](c4c(C)ccnc4F)CC3)c(=O)n(Cc3ncccc3OC(F)(F)F)c2n1` [compound 255, 7-Methyl-3-[(1r,4r)-4-(2-fluoro-4-methyl-3-pyridyl)cyclohexyl]-1-[(3-trifluoromethoxy-2-pyridyl)methyl]-1,8-diaza-2(1H)-naphthalenone]: in test [1] (setting [3]), the IC50 is under 0.5 µM. For the same molecule, the “[Agonist] B-arrestin2 recruitment” value in test [2] is listed as “Non-Active”.
For the molecule `Cc1cccc(F)c1N1CCC(c2cc3nccnc3n([C@@H]3CCCc4ncccc43)c2=O)CC1` [49a, (R)-7-(1-(2-Fluoro-6-methylphenyl)piperidin-4-yl)-5-(5,6,7,8-tetrahydroquinolin-5-yl)pyrido[2,3-b]pyrazin-6(5H)-one], in test [1] (setting [3]), the IC50 lay in the range of 5 to 100 µM. Moreover, in test [2], the “[Agonist] B-arrestin2 recruitment” value is listed as “Non-Active”.
As to `Cc1cccc(F)c1N1CCC(c2c(C)c3nccnc3n(Cc3ccccc3C(F)(F)F)c2=O)CC1` [compound 2, 7-(1-(2-Fluoro-6-methylphenyl)piperidin-4-yl)-8-methyl-5-(2-(trifluoromethyl)benzyl)pyrido[2,3-b]pyrazin-6(5H)-one], in test [1] (setting [3]), the IC50 is 0.5 to 5 µM. Besides, in test [2], the “[Agonist] B-arrestin2 recruitment” value is “Non-Active”.
Consider `CCc1cnc2cc([C@H]3CC[C@H](c4c(C)cccc4F)CC3)c(=O)n(Cc3ncccc3OC(F)(F)F)c2n1` [compound 204, 3-Ethyl-7-((1r,4r)-4-(2-fluoro-6-methylphenyl)cyclohexyl)-5-((3-(trifluoromethoxy)pyridin-2-yl)methyl)pyrido[2,3-b]pyrazin-6(5H)-one], for which, in test [1] (setting [3]), the IC50 is under 0.5 µM. Besides, in test [2] (at 10 μM), the “[Agonist] B-arrestin2 recruitment” value is reported as “Non-Active at 10 μM”.
Turning to `Cc1c(C2CCN(c3cccnc3C(F)(F)F)CC2)c(=O)n(Cc2ccccc2F)c2nccnc12` [compound 11, 5-(2-Fluorobenzyl)-8-methyl-7-(1-(2-(trifluoromethyl)pyridin-3-yl)piperidin-4-yl)pyrido[2,3-b]pyrazin-6(5H)-one], the concentration for half-maximal inhibition (IC50) in test [1] (setting [3]) was over 100 µM. Besides, the “[Agonist] B-arrestin2 recruitment” value in test [2] is listed as “Non-Active”.
For the molecule `Cc1cnc2cc([C@H]3CC[C@H](c4ncccc4C(F)(F)F)CC3)c(=O)n(Cc3ncccc3C(F)(F)F)c2n1` [compound 180, 3-Methyl-7-((1r,4r)-4-(3-(trifluoromethyl)pyridin-2-yl)cyclohexyl)-5-((3-(trifluoromethyl)pyridin-2-yl)methyl)pyrido[2,3-b]pyrazin-6(5H)-one], the IC50 in test [1] (setting [3]) is under 0.5 µM. Moreover, the “[Agonist] B-arrestin2 recruitment” value in test [2] (at 10 μM) was “Non-Active at 10 μM”.
`Cc1cnc2cc(C3CCN(c4c(C)cccc4F)CC3)c(=O)n(Cc3ncccc3OC(F)(F)F)c2n1` [compound 68, 7-(1-(2-Fluoro-6-methylphenyl)piperidin-4-yl)-3-methyl-5-((3-(trifluoromethoxy)pyridin-2-yl)methyl)pyrido[2,3-b]pyrazin-6(5H)-one]: the 50% inhibitory concentration (IC50) in test [1] (setting [3]) was under 0.5 µM. The “[Agonist] B-arrestin2 recruitment” value in test [2] is given as “Non-Active”.
For `Cc1ccc2cc([C@H]3CC[C@H](c4c(C)cccc4F)CC3)c(=O)n(Cc3ncccc3C(F)(F)F)c2n1` [compound 183, 3-((1r,4r)-4-(2-Fluoro-6-methylphenyl)cyclohexyl)-7-methyl-1-((3-(trifluoromethyl)pyridin-2-yl)methyl)-1,8-naphthyridin-2(1H)-one], the IC50 in test [1] (setting [3]) was under 0.5 µM. Besides, the “[Agonist] B-arrestin2 recruitment” value in test [2] (at 10 μM) was “Non-Active at 10 μM”.
As to `Cc1ccc2cc([C@H]3CC[C@H](c4cnccc4C(F)(F)F)CC3)c(=O)n(Cc3ncccc3OC(F)(F)F)c2n1` [compound 247, 7-Methyl-1-((3-(trifluoromethoxy)pyridin-2-yl)methyl)-3-((1r,4r)-4-(4-(trifluoromethyl)pyridin-3-yl)cyclohexyl)-1,8-naphthyridin-2(1H)-one], the IC50 in test [1] (setting [3]) was under 0.5 µM. The “[Agonist] B-arrestin2 recruitment” value in test [2] (at 10 μM) is given as “Non-Active at 10 μM”.
As for `Cc1cnc2cc([C@H]3CC[C@H](c4c(C)cccc4F)CC3)c(=O)n(Cc3ncccc3CC(F)(F)F)c2n1` [compound 219, 7-((1r,4r)-4-(2-Fluoro-6-methylphenyl)cyclohexyl)-3-methyl-5-((3-(2,2,2-trifluoroethyl)pyridin-2-yl)methyl) pyrido[2,3-b]pyrazin-6(5H)-one], the IC50 in test [1] (setting [3]) was under 0.5 µM. The “[Agonist] B-arrestin2 recruitment” value in test [2] (at 10 μM) is reported as “Non-Active at 10 μM”.
Consider `COc1nccc(C)c1[C@H]1CC[C@H](c2cc3ccc(C)nc3n(Cc3ncccc3OC(F)(F)F)c2=O)CC1` [compound 261, 7-Methyl-3-[(1r,4r)-4-(2-methoxy-4-methyl-3-pyridyl)cyclohexyl]-1-[(3-trifluoromethoxy-2-pyridyl)methyl]-1,8-diaza-2(1H)-naphthalenone], for which the IC50 in test [1] (setting [3]) is under 0.5 µM. In test [2], the “[Agonist] B-arrestin2 recruitment” value was “Non-Active”.

Source of the values: patent US20260317320A1, “C5AR1 ANTAGONISTS AND USES THEREOF” (Vanqua Bio, Inc., priority 2022, published 2026).
